Experimental data published in PubChem BioAssay (NCI).
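Growth conditions: 96-well plates. Treatment: test compound, 48 hours, 5 concentrations. Analysis: linear interpolation between bracketing concentrations; unreached endpoints set to highest concentration. GI50 is the concentration that inhibits growth by half. TGI: concentration producing complete growth inhibition.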

Tests used:
Experiment in all cases: NCI-60 cell line screen, 48 h
A549 NSCLC = system: A549 NSCLC
MALME-3M melanoma = system: MALME-3M melanoma
SN12C renal = system: SN12C renal
HOP-92 NSCLC = system: HOP-92 NSCLC
UO-31 renal = system: UO-31 renal
OVCAR-3 ovarian = system: OVCAR-3 ovarian
NCI-H522 lung = system: NCI-H522 lung
U251 CNS = system: U251 CNS
T-47D breast = system: T-47D breast
MCF7 breast = system: MCF7 breast

| Structure (SMILES) | TGI (A549 NSCLC) | TGI (MALME-3M melanoma) | TGI (SN12C renal) | TGI (HOP-92 NSCLC) | TGI (UO-31 renal) | TGI (OVCAR-3 ovarian) | TGI (NCI-H522 lung) | TGI (U251 CNS) | TGI (T-47D breast) | GI50 (A549 NSCLC) | GI50 (MALME-3M melanoma) | GI50 (T-47D breast) | GI50 (SN12C renal) | GI50 (MCF7 breast) | TGI (MCF7 breast) | GI50 (UO-31 renal) | GI50 (OVCAR-3 ovarian) | GI50 (NCI-H522 lung) | GI50 (U251 CNS) | GI50 (HOP-92 NSCLC) |
| --- | --- | --- | --- | --- | --- | --- | --- | --- | --- | --- | --- | --- | --- | --- | --- | --- | --- | --- | --- | --- |
| CC(=O)OCC(=O)[C@@]12OC(C)(C)O[C@@H]1C[C@H]1[C@@H]3CC(C=O)=C4C=C(OCCCl)CC[C@]4(C)[C@@]3(F)[C@@H](O)C[C@@]12C | > 100 µM | 70.3 µM | > 100 µM | 90.2 µM | > 100 µM | > 100 µM | 92 µM | 48.5 µM | – | – | – | – | – | – | – | – | – | – | – | – |
| COc1ccc(CCc2cc(OC)cc(OC)c2)cc1 | > 100 µM | > 83.7 µM | > 100 µM | > 100 µM | > 100 µM | > 65.9 µM | > 41 µM | > 100 µM | – | – | – | – | – | – | – | – | – | – | – | – |
| Cc1ccc(N=Nc2c(O)ccc3ccccc23)cc1 | > 100 µM | > 100 µM | > 100 µM | > 100 µM | > 100 µM | > 100 µM | > 100 µM | > 100 µM | > 100 µM | – | – | – | – | – | – | – | – | – | – | – |
| CC(C)CCCC(C)[C@H]1CCC2[C@@H]3CCC4Nc5c(cnn5-c5ccccc5)C[C@]4(C)C3CC[C@@]21C (some centres not stated) | > 100 µM | > 100 µM | > 100 µM | – | 50.4 µM | > 100 µM | > 100 µM | > 100 µM | – | – | – | – | – | – | – | – | – | – | – | – |
| Cn1cc(C2=C(c3cn(C)c4ccc(Cl)cc34)C(=O)NC2=O)c2ccccc21 | 16.8 µM | 19 µM | 15.7 µM | – | 11.7 µM | 6.88 µM | 10.5 µM | 14 µM | 13 µM | 2.12 µM | 6.33 µM | 3.84 µM | 3.87 µM | 1.25 µM | > 25 µM | 2.54 µM | 1.44 µM | 1.34 µM | 2.21 µM | – |
| O=S(=O)(NCn1ccc2ccccc21)c1ccccc1 | > 100 µM | > 100 µM | > 100 µM | > 100 µM | > 100 µM | > 100 µM | > 100 µM | > 100 µM | – | – | – | – | – | – | – | – | – | – | – | – |
| O=c1ncccn1C1OC(CO)C(O)C1O (configuration not stated) | > 100 µM | > 100 µM | > 100 µM | > 100 µM | > 100 µM | – | > 100 µM | > 100 µM | – | – | – | – | – | – | – | – | – | – | – | – |
| O=C(O)CCNCCCCNCCC(=O)O | > 100 µM | > 100 µM | > 100 µM | > 100 µM | – | > 100 µM | > 100 µM | > 100 µM | – | – | – | – | – | – | – | – | – | – | – | – |
| CCCCCCCCNCCC[C@@H](C)[C@H]1CC[C@H]2[C@@H]3[C@H](OCCCN)C[C@H]4C[C@H](OCCCN)CC[C@]4(C)[C@H]3C[C@H](OCCCN)[C@]12C | 8.81 µM | – | 5.68 µM | 8.46 µM | 3.72 µM | 21.5 µM | 7.16 µM | 6.32 µM | > 26.7 µM | 2.43 µM | – | 3.92 µM | 1.21 µM | – | – | 1.49 µM | 5 µM | 2.48 µM | 2.23 µM | 0.429 µM |
| C=CCO/N=C(\OC(=O)c1ccc([N+](=O)[O-])cc1)c1ccccc1 | > 100 µM | > 100 µM | > 100 µM | > 100 µM | > 100 µM | > 100 µM | – | > 100 µM | – | – | – | – | – | – | – | – | – | – | – | – |
| COc1ccc(C(=O)C(CC2C(=O)NC(=O)NC2=O)c2ccc(OC)cc2)cc1 (configuration not stated) | > 100 µM | > 100 µM | > 100 µM | – | > 100 µM | > 100 µM | > 100 µM | > 100 µM | – | – | – | – | – | – | – | – | – | – | – | – |
